Targets include Histamine H1 receptor (Homo sapiens, UniProt P35367); Mu-type opioid receptor (Homo sapiens, UniProt P35372); Melanocortin receptor 4 (Homo sapiens, UniProt P32245).
In assay [1] the target is 5-hydroxytryptamine receptor 2A (Homo sapiens, UniProt P28223). It is filed as functional, cell-based.
Assay [2] deals with T1, Gastrin/cholecystokinin type B receptor (Homo sapiens, UniProt P32239).
T1 sequence (P32239 whole entry): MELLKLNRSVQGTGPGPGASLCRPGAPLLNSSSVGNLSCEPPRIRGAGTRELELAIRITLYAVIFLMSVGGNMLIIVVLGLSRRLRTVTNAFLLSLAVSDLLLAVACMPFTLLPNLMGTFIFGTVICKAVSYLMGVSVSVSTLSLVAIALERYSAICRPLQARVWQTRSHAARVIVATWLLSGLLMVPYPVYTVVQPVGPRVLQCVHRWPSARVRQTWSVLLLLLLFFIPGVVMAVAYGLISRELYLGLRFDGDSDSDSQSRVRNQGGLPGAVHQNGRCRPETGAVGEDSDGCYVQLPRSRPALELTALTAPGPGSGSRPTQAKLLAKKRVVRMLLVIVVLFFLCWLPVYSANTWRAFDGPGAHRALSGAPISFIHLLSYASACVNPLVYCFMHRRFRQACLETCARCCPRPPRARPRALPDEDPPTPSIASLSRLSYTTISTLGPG

In assay [3] the target is Muscarinic acetylcholine receptor M3 (Homo sapiens, UniProt P20309).
Sequence of Muscarinic acetylcholine receptor M3 (P20309 whole entry): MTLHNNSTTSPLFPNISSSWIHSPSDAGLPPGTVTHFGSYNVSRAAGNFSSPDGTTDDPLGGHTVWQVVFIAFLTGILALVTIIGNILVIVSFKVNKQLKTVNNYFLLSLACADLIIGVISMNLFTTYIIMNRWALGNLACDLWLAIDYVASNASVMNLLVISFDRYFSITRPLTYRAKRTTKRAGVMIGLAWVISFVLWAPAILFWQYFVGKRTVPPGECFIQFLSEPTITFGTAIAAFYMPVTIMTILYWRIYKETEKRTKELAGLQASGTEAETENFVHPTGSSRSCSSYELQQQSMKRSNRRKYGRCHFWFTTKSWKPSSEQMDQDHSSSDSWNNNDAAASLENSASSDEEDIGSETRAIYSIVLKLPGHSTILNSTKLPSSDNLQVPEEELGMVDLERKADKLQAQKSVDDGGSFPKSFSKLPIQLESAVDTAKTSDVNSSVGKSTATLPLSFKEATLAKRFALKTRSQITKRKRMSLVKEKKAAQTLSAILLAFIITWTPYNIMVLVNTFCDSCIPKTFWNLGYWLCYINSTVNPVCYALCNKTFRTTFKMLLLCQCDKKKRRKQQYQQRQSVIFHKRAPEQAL
Assay [4] concerns the target T2, Alpha-1A adrenergic receptor (Homo sapiens, UniProt P35348).
T2 sequence (P35348 whole entry): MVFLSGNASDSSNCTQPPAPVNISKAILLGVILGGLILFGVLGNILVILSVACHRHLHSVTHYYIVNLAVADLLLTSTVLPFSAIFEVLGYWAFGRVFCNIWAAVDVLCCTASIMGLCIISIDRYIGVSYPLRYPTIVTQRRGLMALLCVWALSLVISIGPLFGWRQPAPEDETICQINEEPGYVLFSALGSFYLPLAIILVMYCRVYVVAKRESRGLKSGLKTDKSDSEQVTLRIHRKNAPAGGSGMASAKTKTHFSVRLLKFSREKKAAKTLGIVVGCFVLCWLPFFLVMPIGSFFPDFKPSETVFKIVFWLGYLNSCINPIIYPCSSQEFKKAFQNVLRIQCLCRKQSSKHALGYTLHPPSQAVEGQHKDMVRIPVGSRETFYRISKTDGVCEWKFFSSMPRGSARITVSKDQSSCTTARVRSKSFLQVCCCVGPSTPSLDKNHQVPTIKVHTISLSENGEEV
The assay is classed as functional, cell-based.

In assay [5] the target is 5-hydroxytryptamine receptor 2B (Homo sapiens, UniProt P41595). It is filed as functional, cell-based.
Sequence of 5-hydroxytryptamine receptor 2B (P41595 whole entry): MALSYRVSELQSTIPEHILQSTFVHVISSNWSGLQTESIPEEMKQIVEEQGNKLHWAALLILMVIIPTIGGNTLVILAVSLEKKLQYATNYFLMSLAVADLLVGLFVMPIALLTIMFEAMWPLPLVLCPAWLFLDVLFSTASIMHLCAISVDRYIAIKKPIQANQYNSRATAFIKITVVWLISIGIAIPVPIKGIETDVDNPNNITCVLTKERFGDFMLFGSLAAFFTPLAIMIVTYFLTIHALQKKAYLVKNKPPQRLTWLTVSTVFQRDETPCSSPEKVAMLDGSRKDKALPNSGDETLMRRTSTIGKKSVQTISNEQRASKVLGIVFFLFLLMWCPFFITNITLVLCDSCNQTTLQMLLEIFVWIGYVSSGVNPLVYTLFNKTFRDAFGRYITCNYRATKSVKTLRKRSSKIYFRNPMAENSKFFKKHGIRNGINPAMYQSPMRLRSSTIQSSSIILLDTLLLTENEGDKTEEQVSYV
Assay [6] deals with T3, 5-hydroxytryptamine receptor 1A (Homo sapiens, UniProt P08908).
T3 sequence (P08908 whole entry): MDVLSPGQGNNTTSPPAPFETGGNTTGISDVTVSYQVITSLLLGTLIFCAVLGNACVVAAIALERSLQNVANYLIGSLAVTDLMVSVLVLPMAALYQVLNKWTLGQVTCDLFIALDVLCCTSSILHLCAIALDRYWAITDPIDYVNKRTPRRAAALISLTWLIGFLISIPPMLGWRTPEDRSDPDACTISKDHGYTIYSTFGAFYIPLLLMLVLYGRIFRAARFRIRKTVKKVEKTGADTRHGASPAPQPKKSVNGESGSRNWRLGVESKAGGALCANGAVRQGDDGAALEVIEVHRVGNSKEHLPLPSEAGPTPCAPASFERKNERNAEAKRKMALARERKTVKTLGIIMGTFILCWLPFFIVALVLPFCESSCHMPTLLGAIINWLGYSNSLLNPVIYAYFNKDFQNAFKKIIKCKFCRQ
It is filed as functional, cell-based.

Another assay deals with T4, Adenosine receptor A1 (Homo sapiens, UniProt P30542).
T4 sequence (P30542 whole entry): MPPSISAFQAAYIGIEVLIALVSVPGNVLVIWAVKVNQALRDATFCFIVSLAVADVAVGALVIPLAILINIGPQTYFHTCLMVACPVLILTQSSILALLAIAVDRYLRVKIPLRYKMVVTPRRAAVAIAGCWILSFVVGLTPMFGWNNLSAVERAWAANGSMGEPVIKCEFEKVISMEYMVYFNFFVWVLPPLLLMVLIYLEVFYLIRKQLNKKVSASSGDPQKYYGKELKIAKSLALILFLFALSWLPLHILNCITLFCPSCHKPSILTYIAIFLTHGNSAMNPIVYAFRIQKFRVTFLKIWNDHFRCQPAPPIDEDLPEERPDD

The next assay addresses T5, B2 bradykinin receptor (Homo sapiens, UniProt P30411).
T5 sequence (P30411 whole entry): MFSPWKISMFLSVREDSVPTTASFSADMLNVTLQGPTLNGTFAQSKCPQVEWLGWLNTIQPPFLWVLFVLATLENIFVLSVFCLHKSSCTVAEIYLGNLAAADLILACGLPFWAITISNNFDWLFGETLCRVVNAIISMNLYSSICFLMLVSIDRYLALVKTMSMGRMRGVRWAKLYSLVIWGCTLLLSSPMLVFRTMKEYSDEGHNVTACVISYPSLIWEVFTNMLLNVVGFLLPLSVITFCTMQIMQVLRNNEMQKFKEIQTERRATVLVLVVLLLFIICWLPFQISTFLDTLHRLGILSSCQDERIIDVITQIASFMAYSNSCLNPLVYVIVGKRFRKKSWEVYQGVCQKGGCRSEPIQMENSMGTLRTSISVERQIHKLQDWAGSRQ

The target of assay [7] is T6, Alpha-2A adrenergic receptor (Homo sapiens, UniProt P08913).
T6 sequence (P08913 whole entry): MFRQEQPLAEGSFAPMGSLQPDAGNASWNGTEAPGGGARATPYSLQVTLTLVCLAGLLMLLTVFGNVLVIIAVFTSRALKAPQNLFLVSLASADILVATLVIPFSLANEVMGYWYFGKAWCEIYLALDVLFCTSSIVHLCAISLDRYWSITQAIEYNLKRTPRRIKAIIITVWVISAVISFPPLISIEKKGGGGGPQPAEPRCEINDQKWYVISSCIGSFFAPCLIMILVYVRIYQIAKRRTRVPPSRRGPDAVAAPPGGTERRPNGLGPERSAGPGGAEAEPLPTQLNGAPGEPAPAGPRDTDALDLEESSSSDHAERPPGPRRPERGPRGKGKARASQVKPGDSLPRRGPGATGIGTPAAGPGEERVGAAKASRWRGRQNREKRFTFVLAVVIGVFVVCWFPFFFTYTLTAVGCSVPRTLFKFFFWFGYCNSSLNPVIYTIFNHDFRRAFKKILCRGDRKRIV
It is filed as functional, cell-based.
Further: assay procedure not described here.

Sequence of 5-hydroxytryptamine receptor 2A (P28223 whole entry): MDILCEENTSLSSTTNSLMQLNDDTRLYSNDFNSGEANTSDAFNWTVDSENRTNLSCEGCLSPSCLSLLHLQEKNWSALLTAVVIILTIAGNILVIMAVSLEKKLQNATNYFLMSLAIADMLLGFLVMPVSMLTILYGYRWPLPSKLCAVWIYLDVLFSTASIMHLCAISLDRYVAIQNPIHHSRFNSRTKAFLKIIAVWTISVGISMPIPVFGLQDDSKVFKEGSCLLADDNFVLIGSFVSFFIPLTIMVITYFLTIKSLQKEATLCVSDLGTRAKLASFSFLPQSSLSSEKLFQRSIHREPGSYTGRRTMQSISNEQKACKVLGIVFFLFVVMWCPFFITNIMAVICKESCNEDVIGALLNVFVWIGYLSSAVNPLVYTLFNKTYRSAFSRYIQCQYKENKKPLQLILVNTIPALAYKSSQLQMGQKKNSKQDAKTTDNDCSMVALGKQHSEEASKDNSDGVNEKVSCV
Sequence of Histamine H1 receptor (P35367 whole entry): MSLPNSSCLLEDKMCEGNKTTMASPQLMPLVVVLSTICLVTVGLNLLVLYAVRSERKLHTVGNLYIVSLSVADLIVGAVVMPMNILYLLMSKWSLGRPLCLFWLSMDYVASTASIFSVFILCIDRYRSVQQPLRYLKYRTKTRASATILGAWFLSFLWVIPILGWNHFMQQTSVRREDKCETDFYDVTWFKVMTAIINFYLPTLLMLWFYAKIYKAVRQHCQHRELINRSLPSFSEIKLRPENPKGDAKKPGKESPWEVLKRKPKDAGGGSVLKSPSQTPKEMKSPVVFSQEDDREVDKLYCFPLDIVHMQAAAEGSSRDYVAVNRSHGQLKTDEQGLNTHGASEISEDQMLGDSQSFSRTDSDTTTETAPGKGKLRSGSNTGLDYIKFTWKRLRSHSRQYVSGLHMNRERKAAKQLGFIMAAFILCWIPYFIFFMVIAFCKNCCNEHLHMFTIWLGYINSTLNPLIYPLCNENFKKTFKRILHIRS
Sequence of Mu-type opioid receptor (P35372 whole entry): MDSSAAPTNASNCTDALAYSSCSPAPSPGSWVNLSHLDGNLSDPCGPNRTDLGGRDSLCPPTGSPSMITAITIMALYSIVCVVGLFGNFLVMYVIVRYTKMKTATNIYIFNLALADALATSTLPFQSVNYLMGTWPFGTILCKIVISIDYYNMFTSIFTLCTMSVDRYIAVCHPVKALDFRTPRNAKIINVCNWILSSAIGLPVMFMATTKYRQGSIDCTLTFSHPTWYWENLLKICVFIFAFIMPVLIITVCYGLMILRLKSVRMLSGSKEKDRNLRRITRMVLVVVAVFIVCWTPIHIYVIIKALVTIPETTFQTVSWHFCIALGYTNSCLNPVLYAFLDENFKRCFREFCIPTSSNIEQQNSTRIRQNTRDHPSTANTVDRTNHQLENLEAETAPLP
Sequence of Melanocortin receptor 4 (P32245 whole entry): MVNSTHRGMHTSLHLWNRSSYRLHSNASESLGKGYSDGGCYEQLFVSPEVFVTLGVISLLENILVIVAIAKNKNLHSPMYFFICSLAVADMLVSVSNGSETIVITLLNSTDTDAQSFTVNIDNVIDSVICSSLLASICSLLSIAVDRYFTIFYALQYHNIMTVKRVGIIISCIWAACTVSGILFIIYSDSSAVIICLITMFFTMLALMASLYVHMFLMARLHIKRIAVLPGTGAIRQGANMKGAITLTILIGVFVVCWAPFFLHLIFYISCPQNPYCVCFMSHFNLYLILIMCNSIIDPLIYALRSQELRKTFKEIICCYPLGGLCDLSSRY

For `O=C(O)CCCc1ccccc1` [PHENYLBUTANOIC ACID], the AC50 was > 30 µM in [1]; > 10 µM in [2]; > 30 µM in [3]; > 30 µM in assay [4]; > 30 µM in assay [5]; > 30 µM on Histamine H1 receptor. For the same molecule, the AC50 was > 30 µM in assay [6]; > 10 µM on Adenosine receptor A1; > 30 µM at B2 bradykinin receptor; > 10 µM at Mu-type opioid receptor; > 10 µM on Melanocortin receptor 4; > 30 µM in assay [7].

With `Cc1ccc(-c2nc3ccc(C)cn3c2CC(=O)N(C)C)cc1` [ZOLPIDEM], the AC50 in assay [1] was > 30 µM; in assay [2] it was > 30 µM; in assay [3], > 30 µM; in [4] it was > 30 µM; in assay [5], 29 µM; on Histamine H1 receptor, > 30 µM. The AC50 is > 30 µM in [6]; > 30 µM on Adenosine receptor A1; > 30 µM on B2 bradykinin receptor; > 10 µM on Mu-type opioid receptor; > 30 µM at Melanocortin receptor 4; > 30 µM in assay [7].

In the case of `CCCCCN(C)CCC(O)(P(=O)(O)O)P(=O)(O)O` [IBANDRONIC ACID], the AC50 (in assay [1]; in assay [2]; in assay [3]; in assay [4]; in assay [5]; on Histamine H1 receptor) was > 30 µM throughout. The AC50 (in [6]; on Adenosine receptor A1; at B2 bradykinin receptor; on Mu-type opioid receptor; on Melanocortin receptor 4; in assay [7]) was > 30 µM throughout.

Turning to `CCCCOc1cc(C(=O)NCCN(CC)CC)c2ccccc2n1` [DIBUCAINE], the AC50 in [1] is > 10 µM; in [2], > 30 µM; in [3], > 30 µM; in assay [4] it was > 30 µM; in assay [5], > 10 µM; on Histamine H1 receptor, > 10 µM. Moreover, the AC50 was > 10 µM in assay [6]; > 30 µM at Adenosine receptor A1; > 30 µM on B2 bradykinin receptor; > 30 µM at Mu-type opioid receptor; > 30 µM on Melanocortin receptor 4; > 10 µM in assay [7].

For the molecule `CN1CC(=O)N2[C@H](c3ccc4c(c3)OCO4)c3[nH]c4ccccc4c3C[C@@H]2C1=O`, the AC50 was > 30 µM in assay [1]; > 30 µM in [2]; > 30 µM in [3]; > 30 µM in assay [4]; > 10 µM in assay [5]; > 10 µM on Histamine H1 receptor. Besides, the AC50 is > 10 µM in assay [6]; > 30 µM at Adenosine receptor A1; > 30 µM on B2 bradykinin receptor; > 30 µM on Mu-type opioid receptor; > 30 µM at Melanocortin receptor 4; > 10 µM in assay [7].

As for `COC(=O)C1=C(C)NC(C)=C(C(=O)OC(C)C)C1c1cccc2nonc12` (stereo not drawn) [ISRADIPINE], the AC50 was > 10 µM in [1]; 34.1 µM in [2]; > 30 µM in [3]; > 30 µM in assay [4]; > 10 µM in [5]; > 30 µM on Histamine H1 receptor. The AC50 in [6] is > 10 µM; at Adenosine receptor A1, > 30 µM; at B2 bradykinin receptor, > 30 µM; at Mu-type opioid receptor, > 30 µM; on Melanocortin receptor 4, > 30 µM; in assay [7] it was > 10 µM.

`CN1CCc2cccc3c2[C@H]1Cc1ccc(O)c(O)c1-3` [APOMORPHINE]: the AC50 in assay [1] was > 30 µM; in assay [2], 23.4 µM; in [3], > 30 µM; in [4] it was 0.32 µM; in [5], 4.7 µM; on Histamine H1 receptor it was 15 µM. Besides, the AC50 at Adenosine receptor A1 was > 30 µM; on B2 bradykinin receptor, > 30 µM; on Mu-type opioid receptor, > 30 µM; at Melanocortin receptor 4, > 30 µM; in assay [7], > 10 µM.

As to `CN(C)C(=O)OC1N=C(c2ccccc2)c2cc(Cl)ccc2N(C)C1=O` (stereo not drawn) [CAMAZEPAM], the AC50 was > 30 µM in assay [1]; > 30 µM in assay [2]; > 10 µM in assay [3]; > 30 µM in assay [4]; 18 µM in assay [5]; > 10 µM at Histamine H1 receptor. Moreover, the AC50 in [6] is > 10 µM; at Adenosine receptor A1, > 30 µM; on B2 bradykinin receptor, > 30 µM; on Mu-type opioid receptor it was > 10 µM; on Melanocortin receptor 4, > 30 µM; in assay [7], > 10 µM.

With `Cc1cc(-c2ccccc2)nnc1NCCN1CCOCC1` [MINAPRINE], the AC50 in assay [1] was > 30 µM; in assay [2] it was > 30 µM; in assay [3], > 10 µM; in [4], > 30 µM; in [5], 5.4 µM; on Histamine H1 receptor, > 10 µM. For the same molecule, the AC50 in [6] was > 10 µM; at Adenosine receptor A1, > 30 µM; on B2 bradykinin receptor, > 30 µM; at Mu-type opioid receptor, > 30 µM; at Melanocortin receptor 4, > 30 µM; in assay [7], > 10 µM.

Regarding `CC(C)C(=O)OCC(=O)[C@@]12O[C@H](C3CCCCC3)O[C@@H]1C[C@H]1[C@@H]3CCC4=CC(=O)C=C[C@]4(C)[C@H]3[C@@H](O)C[C@@]12C` [CICLESONIDE], the AC50 in [1] was > 10 µM; in [3], > 30 µM; in assay [4] it was > 30 µM; in assay [5], > 10 µM; on Histamine H1 receptor it was > 10 µM; in assay [6], > 10 µM. Moreover, the AC50 is > 30 µM on Adenosine receptor A1; > 10 µM on B2 bradykinin receptor; > 30 µM on Mu-type opioid receptor; > 10 µM at Melanocortin receptor 4; > 10 µM in assay [7].

As usually defined, the AC50 is the midpoint of the concentration-response curve, whichever way the signal moves.

The record behind these values is ChEMBL document CHEMBL5291721, “A preclinical secondary pharmacology resource illuminates target-adverse drug reaction associations of marketed drugs” (Nat Commun, 2023).
